# Source: paper PMC7380097, “Measurement of Bradykinin Formation and Degradation in Blood Plasma: Relevance for Acquired Angioedema Associated With Angiotensin Converting Enzyme Inhibition and for Hereditary Angioedema Due to Factor XII or Plasminogen Gene Variants” (Frontiers in Medicine, 2020)
# Values joined by “and” are separate entries in the source; they are usually repeats but may differ in a detail not shown here. Identical values can stand only once. “Also recorded” adds a separate entry of the source. Counter-ions that a name gives are not always drawn. Residues, ends and D or L forms follow the SMILES beside them.
# B1: lanadelumab: Human monoclonal antibody, target plasma kallikrein (antibody, chains of the INN, looked up, V domains shown)
# VH: EVQLLESGGGLVQPGGSLRLSCAASGFTFSHYIMMWVRQAPGKGLEWVSGIYSSGGITVYADSVKGRFTISRDNSKNTLYLQMNSLRAEDTAVYYCAYRRIGVPRRDEFDIWGQGTMVTVSS
# VL: DIQMTQSPSTLSASVGDRVTITCRASQSISSWLAWYQQKPGKAPKLLIYKASTLESGVPSRFSGSGSGTEFTLTISSLQPDDFATYYCQQYNTYWTFGQGTKVEIK
# Tests used:
# [1] = cited from earlier work
# Source text: ACE blockade greatly increases BK persistence and pharmacological effect in human whole blood under a variety of in vitro stimulation conditions ([20]). Membrane-bound ACE produced by vascular endothelial cells is shed in an apparently regulated manner into blood plasma ([34]), allowing the use of blood/plasma/serum to monitor ACE activity in human subjects.
# human B1 receptor = conditions: cited from earlier work
# Source text: In the plasminogen sequence, the residue 330 is not proximal to a physiological cleavage site or to the catalytic site: it is rather located within a potential adhesion site in the kringle 3 domain of the molecule ([5]). However, the K330E variant is associated with a distinct N-glysosylation pattern and an increased susceptibility to activation by urokinase-type plasminogen activator (uPA), but not by tPA (assessed only using a chromogenic substrate) ([41]). […] If uP ...
# [2] = test system: angiotensin converting enzyme (ACE); assay: Effect of oral enalapril maleate on ex vivo BK half-life in plasma of healthy volunteers; design: species or system human; conditions: 2 daily oral doses of enalapril maleate 10 mg, healthy volunteers (two), plasma 24 h after the last dose vs before dosing
# Method: Numerical values are reported as means ± standard errors of the mean (S.E.M.). […] The half-life (t1/2) of iBK was calculated as the first order decay procedure in a software suite ([30]).
# [3] = Blood pressure of healthy volunteers taking enalapril maleate; type: in vivo, human; conditions: two normotensive healthy volunteers, 2 daily doses of enalapril maleate 10 mg (Figure S1)
# Method: We previously reported that iBK formation was negligible in either whole blood or plasma incubated at 37°C without stimulus both in healthy donors and HAE patients sampled during remission (HAE-C1-INH type I or II) ([20], [21]). This may be paradoxical because HK is spontaneously and progressively cleaved in the blood of patients with HAE-C1-INH ([15], [16]) or HAE-nC1-INH ([17]). A possible explanation is the efficient clearance of kinins.
# human B2 receptor = conditions: cited from earlier work
# in vitro = in vitro ADME; conditions: human; for half-life at 100 nM: plasma
# Method: (§1) Venous blood was collected without contact with glass in plastic blood collection tubes with 0.11 M sodium citrate (BD Vacutainer Plus, BD Biosciences, Franklin Lake, NJ); the plasma was obtained by centrifugation (1,300 g, 20 min, room temperature), stored at −80°C until use and/or expedition on dry ice to Quebec City. The in vitro activation of plasma at 37°C (200 μl per experimental point sample) was performed precisely as described ([21]) in the presence of enalaprilat (final concentration 130 nM) to reduce the breakdown of BK. The samples were incubated for up to 120 min under rotary agitation (300 rpm) without any added stimulant or with recombinant human tissue kallikrein (KLK-1, 10 nM; gift from DiaMedica, Inc.), with the particulate contact system activator Pacific Hemostasis Kontact-APTT™ (2% v/v; used without the calcium supplement; composed mainly of magnesium aluminum silica and rabbit brain phospholipid; ThermoFisher Scientific) or with recombinant tissue plasminogen activator (tPA, 169 nM; Cathflo, Roche). The tPA concentration was reproduced from Molinaro et al. ([19]) and within the range reached in plasma during therapeutic fibrinolysis. Biotechnological inhibitors used in the mechanistic analysis of iBK formation were previously exploited ([20], [21]) and are listed in Table 2.
# An additional set of experiments aimed at measuring the rate of BK breakdown in the presence or absence of the ACE inhibitor enalaprilat or in plasma from selected human subjects: synthetic BK (100 nM) was added to 200 μl of plasma from healthy volunteers or HAE-nC1-INH patients and incubated at 37°C under agitation for 0–20 min.
# In all experiments dealing with BK EIA, the reactions were stopped by adding 1 ml of cold ethanol, as described ([21]). After further incubation on ice-water for an additional period of at least 60 min, the plasma/ethanol mixtures were cleared of precipitated proteins by centrifugation (13,000 g, 1 min), evaporated to dryness (Speed Vac apparatus) and stored at −80°C until used for BK determination. Then, the samples were reconstituted with 200 μl of distilled water, further diluted 100-fold (1,000-fold for selected samples) with the supplied EIA buffer and directly applied in duplicate to the BK EIA as recommended by the manufacturer (Phoenix Pharmaceuticals, Burlingame, CA; cat. no. EK-009-01; 96-well plate format). The BK EIA is fully cross-reactive with Lys-BK, but not at all with des-Arg^9-BK or Lys-des-Arg^9-BK.
# Numerical values are reported as means ± standard errors of the mean (S.E.M.). Sets of values were compared with Kruskall-Wallis test (non-parametric ANOVA) followed by Dunn's multiple comparison test to compare selected pairs of values. Pairs of values were compared using Mann-Whitney test (Prism 5.0, GraphPad Software Inc., San Diego, CA). The half-life (t1/2) of iBK was calculated as the first order decay procedure in a software suite ([30]).
# [4] = test system: iBK generation induced by tPA; assay: tPA-induced iBK generation in plasma from HAE-FXII (T328K) patients, effect of biotechnological inhibitors; type: biochemical, human; conditions: tPA 169 nM, 20 min incubation, enalaprilat 130 nM present, inhibitor added 5 min before stimulus, 37°C, EIA
# Method: as §1, with “2. […]” for “2.”
# [5] = test system: iBK generation induced by Kontact-APTT; assay: Kontact-APTT-induced iBK generation in plasma from HAE-FXII (T328K) patients, effect of biotechnological inhibitors; type: biochemical, human; conditions: Kontact-APTT 2% v/v, 5 min incubation, enalaprilat 130 nM present, inhibitor added 5 min before stimulus, 37°C, EIA
# Method: as §1, with “2. […]” for “2.”
# [6] = test system: KLK-1-induced iBK formation; assay: KLK-1-induced iBK formation in plasma from HAE-PLG patients, effect of lanadelumab; type: biochemical, human; conditions: KLK-1 10 nM, 5 min incubation, inhibitor added 5 min before KLK-1, enalaprilat 130 nM present, EIA
# Method: as §1, with “2. […]” for “2.”
molecule,measurement,setting,value
des-Arg^9-BK,change of half-life of synthetic des-Arg9-BK when ACE is blocked,[1],doubled
same,affinity for the human form of the B1 receptor,human B1 receptor,low affinity
Lys-des-Arg^9-BK,agonist status at the human B1 receptor,human B1 receptor,optimal agonist
CCOC(=O)[C@H](CCc1ccccc1)N[C@@H](C)C(=O)N1CCC[C@H]1C(=O)O [enalapril maleate],fold increase of BK t1/2 in plasma after oral dosing,[2],~ 5 fold and 4.8 fold
same,blood pressure change during the experiment,[3],slight reversible drop
Lys-BK: kinin formed by KLK-1 mainly from low molecular weight kininogen; direct B2 receptor agonist,potency relative to BK at the human B2 receptor,human B2 receptor,approximately equipotent
"NC(N)=NCCC[C@H](NC(=O)[C@H](Cc1ccccc1)NC(=O)[C@@H]1CCCN1C(=O)[C@H](CO)NC(=O)[C@H](Cc1ccccc1)NC(=O)CNC(=O)[C@@H]1CCCN1C(=O)[C@@H]1CCCN1C(=O)[C@@H](N)CCCN=C(N)N)C(=O)O [BK, Bradykinin] (H-RPPGFSPFR-OH)",half-life at 100 nM,"in vitro; female, BK t1/2 in plasma of family d (HAE-nC1-INH, unknown cause)",22.5 s
same,half-life (t1/2) of BK in normal plasma,in vitro,33 s
same,half-life at 100 nM,in vitro; BK t1/2 in plasma 24 h after 2nd oral dose of enalapril maleate,190 s
same,half-life at 100 nM,in vitro; BK t1/2 in plasma before dosing (baseline),39.5 s
same,half-life at 100 nM,in vitro; half-life (t1/2) of BK in normal plasma,34 s
same,half-life at 100 nM,in vitro; half-life (t1/2) of BK in plasma with ACE blocked by enalaprilat,426 s
same,t1/2 of BK in serum,[1],27 s
B1,effect on early iBK release induced by tPA,[4],significantly decreased; also recorded: suppressed
same,effect on early iBK response to Kontact-APTT,[5],significantly decreased
same,effect on KLK-1-induced iBK formation,[6],not decreased; also recorded: Lack of effect; also recorded: did not inhibit
